# Reference: patent publication US20260070945A1, “MACROCYCLIC IMMUNOMODULATORS” (Bristol-Myers Squibb Company, priority 2022, published 2026)
# *1 amine or outer side, *2 acyl side, *3 side chain or, on linkers, in order; H or OH if unused. Where a SMILES comes first, the peptide text is derived from it. Bridges are numbered along the chain shown (N, C = ends). [ ]: non-standard residue; d: D form. The star is where a group is joined. ξ: configuration not given here. Phe(4-COOH) = N[C@@H](Cc1ccc(C(=O)O)cc1)C(=O)O; Bip = N[C@@H](Cc1ccc(-c2ccccc2)cc1)C(=O)O; Phe(3-Me) = Cc1cccc(C[C@H](N)C(=O)O)c1; γGlu = O=C(O)[C@H](CCC(=O)[*:2])N[*:1]; Phe(2-Me) = Cc1ccccc1C[C@H](N)C(=O)O; Val(3-OH) = CC(C)(O)[C@H](N)C(=O)O; hArg = N=C(N)NCCCC[C@H](N)C(=O)O; 4Pal = N[C@@H](Cc1ccncc1)C(=O)O; Cha = N[C@@H](CC1CCCCC1)C(=O)O; Cit = NC(=O)NCCC[C@H](N)C(=O)O; Ile(3ξ) = CCC(C)[C@H](N)C(=O)O; Thr(3ξ) = CC(O)[C@H](N)C(=O)O; β3hS = N[C@@H](CO)CC(=O)O; 3Abz = Nc1cccc(C(=O)O)c1; Carboxymethyl = O=C(O)C*; NMeA = CN[C@@H](C)C(=O)O; Orn = NCCC[C@H](N)C(=O)O; Aun = NCCCCCCCCCCC(=O)O; Dab = NCC[C@H](N)C(=O)O; AEEA = NCCOCCOCC(=O)O
# Biological target: T1, PD-1/PD-L1 interaction (PE-labeled human PD-L1-Ig binding to Jurkat cell line over-expressing human PD-1) (Homo sapiens, UniProt Q15116)
# T1 construct: expressed in transfected cells; host or cells: Jurkat
# T1 sequence (Q15116 25-288): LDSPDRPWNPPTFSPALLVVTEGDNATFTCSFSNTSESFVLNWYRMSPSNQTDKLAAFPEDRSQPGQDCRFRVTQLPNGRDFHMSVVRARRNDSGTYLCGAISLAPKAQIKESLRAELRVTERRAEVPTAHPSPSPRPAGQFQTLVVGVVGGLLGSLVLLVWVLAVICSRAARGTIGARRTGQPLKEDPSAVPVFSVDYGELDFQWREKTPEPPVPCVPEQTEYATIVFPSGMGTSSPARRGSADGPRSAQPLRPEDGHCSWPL
# Experiment: Jurkat-PD-1 Cell Binding High-Content Screening Assay (CBA)
# Settings: Jurkat-hPD-1 cells, PE-labeled PD-L1-Ig 20 nM final; read-out: Jurkat HPD1 PDL1 IC50
# Outline: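 In this imaging assay, cells in 10% FCS medium see compound for 2 h at 37 °C and then labeled ligand at 20 nM final for 1 h. Paraformaldehyde fixation, Hoechst 33342 staining and dPBS washes precede image capture.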
row,IC50 [nM],SMILES
1,48.7,Cc1cccc(C[C@@H]2NC(=O)[C@H](CC(=O)O)NC(=O)[C@H](Cc3ccc(C(=O)O)cc3)NC(=O)[C@H](CCN)NC(=O)CSC[C@@H](C(=O)N[C@@H](CCN)C(=O)NCCCCCCCCCCC(=O)O)NC(=O)[C@H](CO)NC(=O)[C@H](C(C)(C)O)NC(=O)[C@H](CC3CCCCC3)NC(=O)[C@H](CCN)NC(=O)[C@@H](CC(C)C)NC(=O)[C@H](C)N(C)C(=O)[C@H](Cc3ccc(OCC(=O)O)cc3)NC(=O)[C@H](Cc3ccc(-c4ccccc4)cc3)NC(=O)[C@H](Cc3ccccc3C)NC2=O)c1 [Example 1296] ({CH2CO}-[Dab][Phe(4-COOH)]D[Phe(3-Me)][Phe(2-Me)][Bip]Y(Carboxymethyl)[NMeA][dL][Dab][Cha][Val(3-OH)]SC[Dab][Aun]-OH; thioether N-14)
2,62.5,CC(C)C[C@H]1NC(=O)[C@H](C)N(C)C(=O)[C@H](Cc2ccc(OCC(=O)O)cc2)NC(=O)[C@H](Cc2ccc(-c3ccccc3)cc2)NC(=O)[C@H](Cc2ccc(OCC(=O)O)cc2)NC(=O)[C@H](Cc2c[nH]c3ccccc23)NC(=O)[C@H](CC(=O)O)NC(=O)[C@H](Cc2ccc(OCC(=O)O)cc2)NC(=O)[C@H]([C@@H](C)O)NC(=O)CSC[C@@H](C(=O)N[C@@H](CCN)C(=O)NCCOCCOCC(=O)NCCCCCCCCCCC(=O)O)NC(=O)[C@H](CCC(=O)O)NC(=O)[C@H](C(C)C)NC(=O)[C@H](CC2CCCCC2)NC(=O)[C@H](CCN)NC1=O [Example 1392] ({CH2CO}-TY(Carboxymethyl)DWY(Carboxymethyl)[Bip]Y(Carboxymethyl)[NMeA][dL][Dab][Cha]VEC[Dab][AEEA][Aun]-OH; thioether N-14)
3,9.5,CC(C)C[C@H]1NC(=O)[C@H](C)N(C)C(=O)[C@H](C(C)C)NC(=O)[C@H](Cc2ccc(-c3ccccc3)cc2)NC(=O)[C@H](C(C)C)NC(=O)[C@H](Cc2c[nH]c3ccccc23)NC(=O)[C@H](CC(=O)O)NC(=O)[C@H](Cc2ccc(OCC(=O)O)cc2)NC(=O)[C@H](CCCCNC(=N)N)NC(=O)CSC[C@@H](C(=O)NCC(=O)NCCOCCOCC(=O)N[C@@H](CCCN)C(=O)NCCCCCCCCCCC(=O)O)NC(=O)[C@H](CO)NC(=O)[C@H](C(C)C)NC(=O)[C@H](CC2CCCCC2)NC(=O)[C@H](CCN)NC1=O [Example 2084] ({CH2CO}-[hArg]Y(Carboxymethyl)DWV[Bip]V[NMeA][dL][Dab][Cha]VSCG[AEEA][Orn][Aun]-OH; thioether N-14)
4,240,Cc1cccc(C[C@@H]2NC(=O)[C@H](CC(=O)O)NC(=O)[C@H](Cc3ccc(OCC(=O)O)cc3)NC(=O)[C@H]([C@@H](C)O)NC(=O)CSC[C@@H](C(=O)N[C@H](C)C(=O)NCCCCCCCCCCC(=O)O)NC(=O)[C@H](CCC(=O)O)NC(=O)[C@H](C(C)(C)O)NC(=O)[C@H](CC3CCCCC3)NC(=O)[C@H](CCN)NC(=O)[C@@H](CC(C)C)NC(=O)[C@H](C)N(C)C(=O)[C@H](Cc3ccc(OCC(=O)O)cc3)NC(=O)[C@H](Cc3ccc(-c4ccccc4)cc3)NC(=O)[C@H](Cc3ccc(OCC(=O)O)cc3)NC2=O)c1 [Example 1421] ({CH2CO}-TY(Carboxymethyl)D[Phe(3-Me)]Y(Carboxymethyl)[Bip]Y(Carboxymethyl)[NMeA][dL][Dab][Cha][Val(3-OH)]EC[dA][Aun]-OH; thioether N-14)
5,19.2,CCC(C)[C@@H]1NC(=O)[C@H](Cc2ccc(-c3ccccc3)cc2)NC(=O)[C@H](C(C)C)NC(=O)[C@H](Cc2c[nH]c3ccccc23)NC(=O)[C@H](CC(=O)O)NC(=O)[C@H](Cc2ccc(OCC(=O)O)cc2)NC(=O)[C@H](Cc2ccncc2)NC(=O)CSC[C@@H](C(=O)NCCOCCOCC(=O)N[C@@H](CCCCN)C(=O)NCCCCCCCCCCC(=O)O)NC(=O)[C@H](CO)NC(=O)[C@H](C(C)C)NC(=O)[C@H](CC2CCCCC2)NC(=O)[C@H](CCN)NC(=O)[C@@H](CC(C)C)NC(=O)[C@H](C)N(C)C1=O (stereo partly drawn) [Example 2033] ({CH2CO}-[4Pal]Y(Carboxymethyl)DWV[Bip][Ile(3ξ)][NMeA][dL][Dab][Cha]VSC[AEEA]K[Aun]-OH; thioether N-14)
6,47.4,Cc1cccc(C[C@@H]2NC(=O)[C@H](CC(=O)O)NC(=O)[C@H](Cc3ccc(C(=O)O)cc3)NC(=O)[C@H](Cc3ccc(OCC(=O)O)cc3)NC(=O)CSC[C@@H](C(=O)N[C@@H](CCN)C(=O)NCCCCCCCCCCC(=O)O)NC(=O)[C@H](C(C)O)NC(=O)[C@H](C(C)C)NC(=O)[C@H](CC3CCCCC3)NC(=O)[C@H](CCN)NC(=O)[C@@H](CC(C)C)NC(=O)[C@H](C)N(C)C(=O)[C@H](Cc3ccc(C(=O)O)cc3)NC(=O)[C@H](Cc3ccc(-c4ccccc4)cc3)NC(=O)[C@H](CC(C)C)NC2=O)c1 (stereo partly drawn) [Example 2335] ({CH2CO}-Y(Carboxymethyl)[Phe(4-COOH)]D[Phe(3-Me)]L[Bip][Phe(4-COOH)][NMeA][dL][Dab][Cha]V[Thr(3ξ)]C[Dab][Aun]-OH; thioether N-14)
7,5.1,Cc1cccc(C[C@@H]2NC(=O)[C@H](CC(=O)O)NC(=O)[C@H](Cc3ccc(OCC(=O)O)cc3)NC(=O)[C@H](CCCNC(=N)N)NC(=O)CSC[C@@H](C(=O)N[C@@H](CCN)C(=O)NCCCCCCCCCCC(=O)O)NC(=O)[C@H]([C@@H](C)O)NC(=O)[C@H](C(C)C)NC(=O)[C@H](CC3CCCCC3)NC(=O)[C@H](CCN)NC(=O)[C@@H](CC(C)C)NC(=O)[C@H](C)N(C)C(=O)[C@H](CCCNC(N)=O)NC(=O)[C@H](Cc3ccc(-c4ccccc4)cc3)NC(=O)[C@H](Cc3ccc(O)cc3)NC2=O)c1 [Example 1355] ({CH2CO}-RY(Carboxymethyl)D[Phe(3-Me)]Y[Bip][Cit][NMeA][dL][Dab][Cha]VTC[Dab][Aun]-OH; thioether N-14)

# Further lines, the compound ahead of its results:
row,SMILES,IC50 [nM]
1,CC(C)C[C@@H]1NC(=O)[C@H](Cc2c[nH]c3ccccc23)NC(=O)[C@H](CC(=O)O)NC(=O)[C@H](Cc2ccc(OCC(=O)O)cc2)NC(=O)[C@H](CCCCNC(=N)N)NC(=O)CSC[C@@H](C(=O)NCC(=O)NCCOCCOCC(=O)N[C@@H](CCCNC(N)=O)C(=O)NCCCCCCCCCCC(=O)O)NC(=O)[C@H](CCCNC(N)=O)NC(=O)[C@H](C(C)C)NC(=O)[C@H](CC2CCCCC2)NC(=O)[C@H](CCN)NC(=O)[C@@H](CC(C)C)NC(=O)[C@H](C)N(C)C(=O)[C@H](C(C)C)NC(=O)[C@H](Cc2ccc(-c3ccccc3)cc2)NC1=O [Example 2182] ({CH2CO}-[hArg]Y(Carboxymethyl)DWL[Bip]V[NMeA][dL][Dab][Cha]V[Cit]CG[AEEA][Cit][Aun]-OH; thioether N-14),12.3
2,CC(C)C[C@@H]1NC(=O)[C@H](Cc2c[nH]c3ccccc23)NC(=O)[C@H](CC(=O)O)NC(=O)[C@H](Cc2ccncc2)NC(=O)[C@H](Cc2ccc(OCC(=O)O)cc2)NC(=O)CSC[C@@H](C(=O)Nc2cccc(C(=O)NCCCCCCCCCCC(=O)O)c2)NC(=O)[C@H](CCN)NC(=O)[C@H](C(C)C)NC(=O)[C@H](CC2CCCCC2)NC(=O)[C@H](CCN)NC(=O)[C@@H](CC(C)C)NC(=O)[C@H](C)N(C)C(=O)[C@H](C(C)C)NC(=O)[C@H](Cc2ccc(-c3ccccc3)cc2)NC1=O [Example 1217] ({CH2CO}-Y(Carboxymethyl)[4Pal]DWL[Bip]V[NMeA][dL][Dab][Cha]V[Dab]C[3Abz][Aun]-OH; thioether N-14),238
3,CC(C)C[C@H]1NC(=O)[C@H](C)N(C)C(=O)[C@H](C(C)C)NC(=O)[C@H](Cc2ccc(-c3ccccc3)cc2)NC(=O)[C@H](C(C)C)NC(=O)[C@H](Cc2c[nH]c3ccccc23)NC(=O)[C@H](CC(=O)O)NC(=O)[C@H](Cc2ccncc2)NC(=O)[C@H](Cc2ccc(OCC(=O)O)cc2)NC(=O)CSC[C@@H](C(=O)N[C@@H](CCCCN)C(=O)NCCCCCCCCCCC(=O)O)NC(=O)C[C@H](CO)NC(=O)[C@H](C(C)C)NC(=O)[C@H](CC2CCCCC2)NC(=O)[C@H](CCN)NC1=O [Example 2116] ({CH2CO}-Y(Carboxymethyl)[4Pal]DWV[Bip]V[NMeA][dL][Dab][Cha]V[β3hS]CK[Aun]-OH; thioether N-14),63.7
4,Cc1cccc(C[C@@H]2NC(=O)[C@H](CC(=O)O)NC(=O)[C@H](Cc3ccc(C(=O)O)cc3)NC(=O)[C@H](Cc3ccc(OCC(=O)O)cc3)NC(=O)CSC[C@@H](C(=O)NCC(=O)N[C@@H](CCC(=O)NCCOCCOCC(=O)N[C@@H](CC(=O)O)C(=O)NCCCCCCCCCCC(=O)O)C(=O)O)NC(=O)[C@H](CO)NC(=O)[C@H](C(C)C)NC(=O)[C@H](CC(C)C)NC(=O)[C@H](CC(N)=O)NC(=O)[C@@H](CC(C)C)NC(=O)[C@H](C)N(C)C(=O)[C@H](C(C)C)NC(=O)[C@H](Cc3ccc(-c4ccccc4)cc3)NC(=O)[C@H](CC(C)C)NC2=O)c1 [Example 1014] ({CH2CO}-Y(Carboxymethyl)[Phe(4-COOH)]D[Phe(3-Me)]L[Bip]V[NMeA][dL]NLVSCG[γGlu][AEEA]D[Aun]-OH; thioether N-14),48.5

# Same assay, conditions: PE-labeled PD-L1-Ig 20 nM final, Jurkat-hPD-1 cells; read-out: Jurkat HPD1 PDL1 IC50
row,IC50 [nM],SMILES
1,1.8,Cc1cccc(C[C@@H]2NC(=O)[C@H](CC(=O)O)NC(=O)[C@H](Cc3ccc(C(=O)O)cc3)NC(=O)[C@H](C(C)O)NC(=O)CSC[C@@H](C(=O)N[C@@H](CCN)C(=O)NCCOCCOCC(=O)NCCOCCOCC(=O)NCCCCCCCCCCC(=O)O)NC(=O)[C@H](CO)NC(=O)[C@H](C(C)(C)O)NC(=O)[C@H](CC3CCCCC3)NC(=O)[C@H](CCN)NC(=O)[C@@H](CC(C)C)NC(=O)[C@H](C)N(C)C(=O)[C@H](Cc3ccc(C(=O)O)cc3)NC(=O)[C@H](Cc3ccc(-c4ccccc4)cc3)NC(=O)[C@H](Cc3ccc(C(=O)O)cc3)NC2=O)c1 (stereo partly drawn) [Example 2527] ({CH2CO}-[Thr(3ξ)][Phe(4-COOH)]D[Phe(3-Me)][Phe(4-COOH)][Bip][Phe(4-COOH)][NMeA][dL][Dab][Cha][Val(3-OH)]SC[Dab][AEEA][AEEA][Aun]-OH; thioether N-14)
